Test results as given in US20200187502A1, “MICROBIOCIDAL OXADIAZOLE DERIVATIVES” (SYNGENTA PARTICIPATIONS AG, priority 2017, published 2020).

Columns and labels:
[1] = system: Puccinia recondita f. Sp. Tritici; experiment: Fungicidal activity, wheat leaf disc preventative (brown rust); assay type: in vivo; conditions: foliar, 200 ppm in the applied formulation, wheat leaf segments cv. Kanzler, compared to untreated control, 7 to 9 days after application, read-out: disease control
Summary of the method: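 Wheat cv. Kanzler leaf segments on agar were sprayed with formulated compound in water, then inoculated with spores 1 day later. Incubated at 19° C, 75% rh, 12 h light/12 h dark; percent disease control versus untreated scored 7 to 9 days after application.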

[2] = system: Puccinia recondita f. Sp. Tritici; experiment: Fungicidal activity, wheat leaf disc curative (brown rust); assay type: in vivo; conditions: foliar, 200 ppm in the applied formulation, wheat leaf segments cv. Kanzler, curative (applied 1 day after inoculation), compared to untreated control, 6 to 8 days after application, read-out: disease control
Summary of the method: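 Read-out is percent disease control relative to untreated segments, assessed 6 to 8 days after treatment once check disease is adequate. Kanzler wheat leaf segments on agar receive fungal spores, then test compound (DMSO stock diluted in 0.025% Tween20 or water) 1 day later, under 19° C and 75% relative humidity.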

[3] = system: Glomerella lacenarium (Colletotrichum lacenarium); experiment: Fungicidal activity, liquid culture, cucumber preventative (anthracnose); assay type: cell-based; conditions: 20 ppm in the applied formulation, liquid culture in PDB, inhibition of growth measured photometrically 3 to 4 days after application, compared to untreated control, read-out: disease control
Summary of the method: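 Photometric measurement of fungal growth inhibition 3 to 4 days after application gives percent activity relative to untreated check. Conidia were suspended in potato dextrose broth and combined with DMSO compound solutions; incubation at 24° C.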

[4] = system: Phakopsora pachyrhizi; experiment: Fungicidal activity, soybean leaf disc preventative (Asian soybean rust); assay type: in vivo; conditions: foliar, 200 ppm in the applied formulation, soybean leaf disks, compared to untreated control, 12 to 14 days after application, read-out: disease control
Summary of the method: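 Read-out is percent disease control relative to untreated check discs, assessed once untreated discs show adequate disease, 12 to 14 days after application. Compounds, tested at 200 ppm in the applied formulation, are sprayed onto soybean leaf discs one day before inoculation with a spore suspension.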

CN(Cc1ccc(-c2noc(C(F)(F)F)n2)s1)C(=O)C1CC1 [Compound 5.1, N-methyl-N-[[5-[5-(trifluoromethyl)-1,2,4-oxadiazol-3-yl]-2-thienyl]methyl]cyclopropanecarboxamide]
≥ 80%: pest or weed control at 200 ppm [1] | pest or weed control at 200 ppm [2] | inhibition of growth at 20 ppm [3] | pest or weed control at 200 ppm [4]

O=C(C1CC1)N(Cc1ccc(-c2noc(C(F)(F)F)n2)s1)C1CC1 [Compound 5.2, N-cyclopropyl-N-[[5-[5-(trifluoromethyl)-1,2,4-oxadiazol-3-yl]-2-thienyl]methyl]cyclopropanecarboxamide]
≥ 80%: pest or weed control at 200 ppm [1] | pest or weed control at 200 ppm [2] | inhibition of growth at 20 ppm [3] | pest or weed control at 200 ppm [4]

CCN(Cc1ccc(-c2noc(C(F)(F)F)n2)s1)C(=O)NC1CC1 [Compound 5.3, 3-cyclopropyl-1-ethyl-1-[[5-[5-(trifluoromethyl)-1,2,4-oxadiazol-3-yl]-2-thienyl]methyl]urea]
≥ 80%: pest or weed control at 200 ppm [1] | pest or weed control at 200 ppm [2] | inhibition of growth at 20 ppm [3] | pest or weed control at 200 ppm [4]

CCN(Cc1ccc(-c2noc(C(F)(F)F)n2)s1)C(=O)C1CC1 [Compound 5.4, N-ethyl-N-[[5-[5-(trifluoromethyl)-1,2,4-oxadiazol-3-yl]-2-thienyl]methyl]cyclopropanecarboxamide]
≥ 80%: pest or weed control at 200 ppm [1] | pest or weed control at 200 ppm [2] | inhibition of growth at 20 ppm [3] | pest or weed control at 200 ppm [4]

CC(C)N(Cc1ccc(-c2noc(C(F)(F)F)n2)s1)C(=O)C1CC1 [Compound 5.5, N-isopropyl-N-[[5-[5-(trifluoromethyl)-1,2,4-oxadiazol-3-yl]-2-thienyl]methyl]cyclopropanecarboxamide]
≥ 80%: pest or weed control at 200 ppm [1] | pest or weed control at 200 ppm [2] | inhibition of growth at 20 ppm [3] | pest or weed control at 200 ppm [4]

CN(Cc1ccc(-c2noc(C(F)(F)F)n2)s1)C(=O)NC1CC1 [Compound 5.6, 3-cyclopropyl-1-methyl-1-[[5-[5-(trifluoromethyl)-1,2,4-oxadiazol-3-yl]-2-thienyl]methyl]urea]
≥ 80%: pest or weed control at 200 ppm [1] | pest or weed control at 200 ppm [2] | inhibition of growth at 20 ppm [3] | pest or weed control at 200 ppm [4]

CCN(Cc1ccc(-c2noc(C(F)(F)F)n2)s1)C(=O)C1(C)COC1 [Compound 5.14, N-ethyl-3-methyl-N-[[5-(5-(trifluoromethyl)-1,2,4-oxadiazol-3-yl]-2-thienyl]methyl]oxetane-3-carboxamide]
≥ 80%: pest or weed control at 200 ppm [1] | pest or weed control at 200 ppm [2] | inhibition of growth at 20 ppm [3] | pest or weed control at 200 ppm [4]

CCN(Cc1ccc(-c2noc(C(F)(F)F)n2)s1)C(=O)C1CC1C (centres unmarked) [Compound 5.16, N-ethyl-2-methyl-N-[[5-[5-(trifluoromethyl)-1,2,4-oxadiazol-3-yl]-2-thienyl]methyl]cyclopropanecarboxamide]
≥ 80%: pest or weed control at 200 ppm [1] | pest or weed control at 200 ppm [2] | inhibition of growth at 20 ppm [3] | pest or weed control at 200 ppm [4]

CN(Cc1ccc(-c2noc(C(F)(F)F)n2)s1)C(=O)CC1CC1 [Compound 5.18, 2-cyclopropyl-N-methyl-N-[[5-[5-(trifluoromethyl)-1,2,4-oxadiazol-3-yl]-2-thienyl]methyl]acetamide]
≥ 80%: pest or weed control at 200 ppm [1] | pest or weed control at 200 ppm [2] | inhibition of growth at 20 ppm [3] | pest or weed control at 200 ppm [4]

CN(Cc1ccc(-c2noc(C(F)(F)F)n2)s1)C(=O)C1CCC1 [Compound 5.20, N-methyl-N-[[5-[5-(trifluoromethyl)-1,2,4-oxadiazol-3-yl]-2-thienyl]methyl]cyclobutanecarboxamide]
≥ 80%: pest or weed control at 200 ppm [1] | pest or weed control at 200 ppm [2] | inhibition of growth at 20 ppm [3] | pest or weed control at 200 ppm [4]

CN(Cc1ccc(-c2noc(C(F)(F)F)n2)s1)C(=O)C1(C)CC1 [Compound 5.21, N,1-dimethyl-N-[[5-[5-(trifluoromethyl)-1,2,4-oxadiazol-3-yl]-2-thienyl]methyl]cyclopropanecarboxamide]
≥ 80%: pest or weed control at 200 ppm [1] | pest or weed control at 200 ppm [2] | inhibition of growth at 20 ppm [3] | pest or weed control at 200 ppm [4]

CN(Cc1ccc(-c2noc(C(F)(F)F)n2)s1)C(=O)C1CC1(F)F (centres unmarked) [Compound 5.24, 2,2-difluoro-N-methyl-N-[[5-[5-(trifluoromethyl)-1,2,4-oxadiazol-3-yl]-2-thienyl]methyl]cyclopropanecarboxamide]
≥ 80%: pest or weed control at 200 ppm [1] | pest or weed control at 200 ppm [2] | inhibition of growth at 20 ppm [3] | pest or weed control at 200 ppm [4]

CC1CC1C(=O)N(C)Cc1ccc(-c2noc(C(F)(F)F)n2)s1 (centres unmarked) [Compound 5.25, N,2-dimethyl-N-[[5-[5-(trifluoromethyl)-1,2,4-oxadiazol-3-yl]-2-thienyl]methyl]cyclopropanecarboxamide]
≥ 80%: pest or weed control at 200 ppm [1] | pest or weed control at 200 ppm [2] | inhibition of growth at 20 ppm [3] | pest or weed control at 200 ppm [4]

O=C(NC1CC1)N(Cc1ccc(-c2noc(C(F)(F)F)n2)s1)C1CC1 [Compound 5.62, 1,3-dicyclopropyl-1-[[5-[5-(trifluoromethyl)-1,2,4-oxadiazol-3-yl]-2-thienyl]methyl]urea]
≥ 80%: pest or weed control at 200 ppm [1] | pest or weed control at 200 ppm [2] | inhibition of growth at 20 ppm [3] | pest or weed control at 200 ppm [4]

O=C(NC1CC1)N(Cc1ccc(-c2noc(C(F)(F)F)n2)s1)OCC(F)F [Compound 5.65, 3-cyclopropyl-1-(2,2-difluoroethoxy)-1-[[5-[5-(trifluoromethyl)-1,2,4-oxadiazol-3-yl]-2-thienyl]methyl]urea]
≥ 80%: pest or weed control at 200 ppm [1] | pest or weed control at 200 ppm [2] | inhibition of growth at 20 ppm [3] | pest or weed control at 200 ppm [4]

CCN(Cc1ccc(-c2noc(C(F)(F)F)n2)s1)C(=O)C(N)=O [Compound 6.5, N′-ethyl-N′-[[5-[5-(trifluoromethyl)-1,2,4-oxadiazol-3-yl]-2-thienyl]methyl]oxamide]
≥ 80%: pest or weed control at 200 ppm [1] | pest or weed control at 200 ppm [2] | inhibition of growth at 20 ppm [3] | pest or weed control at 200 ppm [4]

CN(Cc1ccc(-c2noc(C(F)(F)F)n2)s1)C(=O)C(N)=O [Compound 6.7, N′-methyl-N′-[[5-[5-(trifluoromethyl)-1,2,4-oxadiazol-3-yl]-2-thienyl]methyl]oxamide]
≥ 80%: pest or weed control at 200 ppm [1] | pest or weed control at 200 ppm [2] | inhibition of growth at 20 ppm [3] | pest or weed control at 200 ppm [4]

NC(=O)C(=O)N(Cc1ccc(-c2noc(C(F)(F)F)n2)s1)C1CC1 [Compound 6.10, N′-cyclopropyl-N′-[[5-[5-(trifluoromethyl)-1,2,4-oxadiazol-3-yl]-2-thienyl]methyl]oxamide]
≥ 80%: pest or weed control at 200 ppm [1] | pest or weed control at 200 ppm [2] | inhibition of growth at 20 ppm [3] | pest or weed control at 200 ppm [4]

CCN(Cc1ccc(-c2noc(C(F)(F)F)n2)s1)S(C)(=O)=O [Compound 6.16, N-ethyl-N-[[5-[5-(trifluoromethyl)-1,2,4-oxadiazol-3-yl]-2-thienyl]methyl]methanesulfonamide]
≥ 80%: pest or weed control at 200 ppm [1] | pest or weed control at 200 ppm [2] | inhibition of growth at 20 ppm [3] | pest or weed control at 200 ppm [4]

COCCS(=O)(=O)N(C)Cc1ccc(-c2noc(C(F)(F)F)n2)s1 [Compound 6.21, 2-methoxy-N-methyl-N-[[5-[5-(trifluoromethyl)-1,2,4-oxadiazol-3-yl]-2-thienyl]methyl]ethanesulfonamide]
≥ 80%: pest or weed control at 200 ppm [1] | pest or weed control at 200 ppm [2] | inhibition of growth at 20 ppm [3] | pest or weed control at 200 ppm [4]
